We go through five compounds from publication PMC3508153 (Journal of medicinal chemistry, 2012).

SMILES strings stand for the structures.

The nature of series [1]: in vivo. The note with it: rat, plasma, ip, 10 mg/kg.
The nature of series [2]: In vivo PK after oral administration in rats, incl. brain and plasma levels. The note with it: rat, oral 10 mg/kg; for Vd: sodium salt; for Brain: brain harvested at or near Tmax; for Plasma: plasma harvested at or near Tmax.
Series [3] is described as follows: in vivo. The note with it: rat, plasma, po, 10 mg/kg.
Series [4] is described as follows: in vivo. The note with it: rat, plasma, iv, 2 mg/kg.

The term AUC(0-t) denotes exposure summed from dosing to a finite time, without extrapolation to infinity. For the compound `O=C(O)c1cc(-c2cccc(-c3ccc4c(c3)CN(C3CCCC3)C4=O)c2)ccc1Cl` [Compound 24, 4-Chloro-3'-(2-cyclopentyl-1-oxoisoindolin-5-yl)biphenyl-3-carboxylic acid], the AUC(0-t) was 3.23 µM·h in “in vivo [1]” and 2.67 µM·h in “in vivo [3]”. Besides, the Vd in series [2] is given as 96.2 mL.

With `COc1ccc(C(=O)O)cc1-c1cccc(COc2ccc3c(c2)CN(C2CCCC2)C3=O)c1` [Compound 15a, 3'-((2-Cyclopentyl-1-oxoisoindolin-5-yloxy)methyl)-6-methoxybiphenyl-3-carboxylic acid], in series [2], the Vd worked out at 10875.2 mL, the Brain came to 0.18 ± 0.01 µM and the Plasma was determined as 1.46 ± 0.29 µM. The compound further gave an AUC(0-t) in the series “in vivo [3]” of 12 µM·h.

Regarding `O=C(O)c1cc(-c2cccc(COc3ccc4c(=O)n(C5CC5)sc4c3)c2)ccc1Cl` [Compound 3e, 4-Chloro-3'-((2-cyclopropyl-3-oxo-2,3-dihydrobenzo[d]isothiazol-6-yloxy)methyl)biphenyl-3-carboxylic acid], in series [2], the Vd was 4.1 mL, the Brain is 0.03 ± 0.01 µM and the Plasma amounted to 0.8 ± 0.2 µM. Besides, the AUC(0-t) in “in vivo [3]” was 61.5 µM·h.

Take `O=C(O)c1cc(-c2cccc(COc3ccc4c(c3)CN(C3CCCC3)C4=O)c2)ccc1Cl` [Compound 2]: the AUC(0-t) was 11.8 µM·h in “in vivo [4]” and 42.5 µM·h in “in vivo [3]”.

In the case of `O=C(O)c1cc(-c2cccc(COc3ccc4c(c3)CN(C3CCCC3)C4=O)c2)ccc1O` [Compound 15b, 3'-((2-Cyclopentyl-1-oxoisoindolin-5-yloxy)methyl)-4-hydroxybiphenyl-3-carboxylic acid], in series [2], the Vd stood at 28.0 mL, the Brain amounted to 0.0071 ± 0.0004 µM and the Plasma was 0.21 ± 0.046 µM. In the series “in vivo [4]”, this compound showed an AUC(0-t) of 2.57 µM·h. Besides, the AUC(0-t) in the series “in vivo [3]” is 7.1 µM·h.
